Results reported in patent publication US20250019385A1, “SPIROCYCLIC ANNULATED 2-AMINO-3-CYANO THIOPHENES AND DERIVATIVES FOR THE TREATMENT OF CANCER” (Boehringer Ingelheim International GmbH, priority 2023, published 2025).
Converted amounts (≈) assume the structure as drawn. Where two headings read alike, the source gives them in different places.

Assays:
[1] = tested on: Ba/F3 cells KRAS G12V; test: Ba/F3 proliferation assay (KRAS G12V); assay type: cell-based; conditions: AlamarBlue viability
Procedure: Ba/F3 cells are ordered from DSMZ (ACC300, Lot17) and grown in RPMI-1640 (ATCC 30-2001)+10% FCS+10 ng/mL IL-3 at 37° C. in 5% […] atmosphere. Plasmids containing KRASG12 mutants (i.e. […], G12C, G12V) are obtained from GeneScript. To generate KRASG12-dependent Ba/F3 models, Ba/F3 cells are transduced with retroviruses containing vectors that harbor KRASG12 isoforms. Platinum-E cells (Cell Biolabs) are used for retrovirus packaging. Retrovirus is added to Ba/F3 cells. To ensure infection, 4 μg/mL polybrene is added and cells are spinfected. Infection efficiency is confirmed by measuring GFP-positive cells using a cell analyzer. Cells with an infection efficiency of 10% to 20% are further cultivated and puromycin selection with 1 μg/mL is initiated. As a control, parental Ba/F3 cells are used to show selection status. Selection is considered successful when parental Ba/F3 cells cultures died. To evaluate the transforming potential of KRASG12 mutations, the growth medium is no longer supplemented with IL-3. Ba/F3 cells harboring the empty vector are used as a control. Approximately ten days before conducting the experiments, puromycin is left out.
For proliferation assays, Ba/F3 cells are seeded into 384-well plates at 1.5×1 (M cells/60 μL in growth media (RPMI-1640+10% FCS). Compounds (10 mM stock in DMSO) are added at logarithmic dose series using the ECHO acoustic liquid handler system (Beckman Coulter), normalizing for added DMSO and including DMSO controls. All compound treatments are performed in technical duplicates. For the TO time point measurement, untreated cells are analyzed at the time of compound addition. Treated cells are incubated for 72 h at 37° C. with 5% CO2 and cell viability is measured in the PerkinElmer Envision Multimode Reader using AlamarBlue™ (ThermoFisher) viability stain. Viability (stated as percent of control) is defined as relative fluorescence units RFU of each well divided by the RFU of cells in DMSO controls. IC50 values are determined from viability measurements by non-linear regression using a four-parameter model.

[2] = tested on: MKN1 cells; test: MKN1 CTG proliferation assay (120 h) (gastric cancer, wt amplified); assay type: cell-based; conditions: Homo sapiens, MKN-1
Procedure: (§1) MKN1 cells (JCRB0252) are dispensed into black 384-well plates, flat and clear bottom (Greiner, PNr. 781091) at a density of 200 cells per well in 60 μl RPMI-1640 ATCC-Formulation (Gibco #A10491)+10% FCS (fetal calf serum, HyClone, SH30084.03). Cells are incubated overnight at 37° C. in a humidified tissue culture incubator at 5% CO2. Compounds (10 mM stock in DMSO) are added at logarithmic dose series using the ECHO acoustic liquid handler system (Beckman Coulter), normalizing for added DMSO and including DMSO controls. All compound treatments are performed in technical duplicates. For the TO time point measurement, untreated cells are analyzed at the time of compound addition. Plates are incubated for 120 h, and cell viability is measured using CellTiter-Glo luminescent cell viability reagent (Promega product code G7570). Viability (stated as percent of control) is defined as relative luminescence units RLU of each well divided by the RLU of cells in DMSO controls. IC50 values are determined from viability measurements by non-linear regression using a four-parameter model.
(§2) IC50 values of representative compounds according to the invention measured with these assays in the indicated cell lines are presented in Table 46.

[3] = tested on: NCI-H727 cells; test: NCI-H727 CTG proliferation assay (120 h) (lung cancer, G12V); assay type: cell-based; conditions: Homo sapiens
Procedure: as §1, with “NCI-H727” for “MKN1”, “(ATCC No. CRL-5815)” for “(JCRB0252)”, “500” for “200”, “RPMI” for “RPMI-1640”, “(PAN P04-18047)+10%” for “(Gibco #A10491)+10%”
as §2

[4] = Plasma protein binding assay (PPB), equilibrium dialysis; assay type: in vitro ADME; conditions: 10% FCS in PBS; for fraction unbound: bovine, read-out: PPB 10% FCS (% fu)
Procedure: Binding of test compounds to plasma was determined using equilibrium dialysis (ED) and quantitative mass spectrometry interfaced with liquid chromatography (LC-MS). In brief, ED was performed with dialysis devices consisting of two chambers separated by a semipermeable membrane with a molecular weight cut-off of 5-10 kg/mol. One chamber was filled with 10% FCS in PBS containing 1-10 μmol/L test compound and the other chamber was filled with phosphate-buffer saline (PBS) with or without dextran. The dialysis chamber was incubated for 3-5 hours at 37° C. After incubation, protein was precipitated from aliquots of each chamber and the concentration of test compound in the supernatant of the plasma-containing compartment (cserum) and of the buffer-containing compartment (cbuffer) was determined by LC-MS. The fraction of unbound test compound (not bound to plasma) (f) was calculated according to the following equation: […]

[5] = Solubility measurement (DMSO solution precipitation method); assay type: physicochemical; conditions: for solubility at 24 h: aqueous buffer, kinetic from dmso stock
Procedure: A 10 mM DMSO stock solution of a test compound is used to determine its aq. solubility. The DMSO solution is diluted with an aq. medium (McIlvaine buffer with pH=4.5 or 6.8) to a final concentration of 250 μM. After 24 h of shaking at ambient temperature a potentially formed precipitate is removed by filtration. The concentration of the test compound in the filtrate is determined by LC-UV methods by calibrating the signal to the signal of a reference solution with complete dissolution of the test compound in acetonitrile/water (1:1) with known concentration.

[6] = McIlvaine buffer pH 4.5, 24 h, read-out: solubility pH 4.5
[7] = McIlvaine buffer pH 6.8, 24 h, read-out: solubility pH 6.8

Row | Structure (SMILES) | IC50 ([1]; Mus musculus, BaF3, 72 h) [nM] | IC50 [2] [nM] | IC50 [3] [nM] | fraction unbound [4] | solubility at 24 h [5, 6] [µg/mL] | solubility at 24 h [5, 7] [µg/mL] | IC50 ([1]; 72 h) [nM] | PPB 10% FCS (% fu) ([4]; fraction unbound) | solubility pH 4.5 ([5]; McIlvaine buffer pH 4.5, 24 h, from DMSO stock) [μg/ml] | solubility pH 6.8 ([5]; McIlvaine buffer pH 6.8, 24 h, from DMSO stock) [μg/mL]
1 | COCCn1c(=O)n([C@@H]2CCOC2)c2nc(-c3onc4c3CCC[C@@]43CCCc4sc(N)c(C#N)c43)nc(O[C@@H](C)[C@@H]3CCCN3C)c21 [I-1] | 8 | 300 | 10 | 0.34 | > 157 | > 155 | – | – | – | –
2 | CO[C@H]1C[C@@H]([C@H](C)Oc2nc(-c3onc4c3CCC[C@@]43CCCc4sc(N)c(C#N)c43)nc3c2n(C)c(=O)n3[C@@H]2CCOC2)N(C)C1 [I-2] | 21 | 95 | 14 | 0.15 | > 159 | 115 (≈ 174 µM) | – | – | – | –
3 | CO[C@@H]1C[C@@H]([C@H](C)Oc2nc(-c3onc4c3CCC[C@@]43CCCc4sc(N)c(C#N)c43)nc3c2n(C)c(=O)n3[C@@H]2CCOC2)N(C)C1 [I-3] | 3 | 22 | 5 | 0.11 | > 157 | 77 (≈ 117 µM) | – | – | – | –
4 | C[C@H](Oc1nc(-c2onc3c2CCC[C@@]32CCCc3sc(N)c(C#N)c32)nc2c1n(C)c(=O)n2[C@@H]1CCOC1)[C@@H]1[C@H](F)CCN1C [I-4] | 25 | 509 | 33 | 0.13 | > 152 | 28 (≈ 43.2 µM) | – | – | – | –
5 | C[C@H](Oc1nc(-c2onc3c2CCC[C@@]32CCCc3sc(N)c(C#N)c32)nc2c1n(C)c(=O)n2[C@@H]1CCOC1)[C@@H]1[C@@H](F)CCN1C [I-5] | 14 | 113 | 18 | 0.03 | > 150 | 2 (≈ 3.08 µM) | – | – | – | –
6 | CO[C@H]1CCN(C)[C@@H]1[C@H](C)Oc1nc(-c2onc3c2CCC[C@@]32CCCc3sc(N)c(C#N)c32)nc2c1n(C)c(=O)n2[C@@H]1CCCOC1 [I-6] | 2 | 90 | 3 | 0.17 | > 164 | < 1 | – | – | – | –
7 | COCCn1c(=O)n(C)c2c(O[C@@H](C)[C@@H]3CCCN3C)nc(-c3onc4c3CCC[C@@]43CCCc4sc(N)c(C#N)c43)nc21 [I-7] | 46 | 373 | 348 | 0.24 | > 150 | > 147 | – | – | – | –
8 | C[C@H](Oc1nc(-c2onc3c2CCC[C@@]32CCCc3sc(N)c(C#N)c32)nc2c1[nH]c(=O)n2[C@@H]1CCOC1)[C@@H]1CCCN1C [I-8] | 20 | 41 | 12 | 0.4 | > 147 | > 139 | – | – | – | –
9 | CCn1c(=O)n([C@@H]2CCCOC2)c2nc(-c3onc4c3CCC[C@@]43CCCc4sc(N)c(C#N)c43)nc(OCC3(CN4CCCC4)CC3)c21 [I-35] | 104 | 978 | 159 | 0.07 | – | – | – | – | – | –
10 | C[C@H](Oc1nc(-c2onc3c2CCC[C@@]32CCCc3sc(N)c(C#N)c32)nc2c1n(C)c(=O)n2[C@H]1CO[C@@H](C)C1)[C@@H]1CCCN1C [I-47] | – | – | – | 0.13 | > 132 | 101 (≈ 157 µM) | – | – | – | –
11 | C[C@H](Oc1nc(-c2onc3c2CCC[C@@]32CCCc3sc(N)c(C#N)c32)nc2c1n(C)c(=O)n2[C@H]1CO[C@@H](C)C1)[C@@H]1CC[C@H](C)N1C [I-50] | 1 | – | – | 0.09 | 124 (≈ 188 µM) | 103 (≈ 156 µM) | – | – | – | –
12 | CO[C@H]1CCN(C)[C@@H]1[C@H](C)Oc1nc(-c2onc3c2CCC[C@@]32CCCc3sc(N)c(C#N)c32)nc2c1n(C)c(=O)n2[C@H]1COC[C@@H](C)C1 [I-51] | 2 | – | – | 0.07 | > 153 | < 1 | – | – | – | –
13 | CO[C@@H]1C[C@@H]([C@H](C)Oc2nc(-c3onc4c3CCC[C@@]43CCCc4sc(N)c(C#N)c43)nc3c2n(C)c(=O)n3[C@H]2COC[C@@H](C)C2)N(C)C1 [I-52] | 3 | – | – | 0.06 | > 153 | < 1 | – | – | – | –
14 | C[C@H](Oc1nc(-c2noc3c2CCC[C@@]32CCCc3sc(N)c(C#N)c32)nc2c1n(C)c(=O)n2[C@H]1CO[C@@H](C)C1)[C@@H]1CCCN1C [II-5] | – | 2 | – | – | > 142 | 107 (≈ 166 µM) | – | – | – | –
15 | C[C@H](Oc1nc(-c2noc3c2CCC[C@@]32CCCc3sc(N)c(C#N)c32)nc2c1CN(c1ncccn1)[C@]21CCOC1)[C@@H]1CCCN1C [II-7a] | 10 | 41 | – | 0.02 | 65 (≈ 97.6 µM) | 24 (≈ 36 µM) | – | – | – | –
16 | C[C@H](Oc1nc(-c2noc3c2CCC[C@@]32CCCc3sc(N)c(C#N)c32)nc2c1CN(c1ncccn1)[C@@]21CCOC1)[C@@H]1CCCN1C [II-7b] | 37 | 635 | – | 0.05 | 62 (≈ 93.1 µM) | 23 (≈ 34.5 µM) | – | – | – | –
17 | C[C@H](Oc1nc(-c2noc3c2CCC[C@@]32CCCc3sc(N)c(C#N)c32)nc2c1CCCO[C@]21CCOC1)[C@@H]1CCCN1C [II-10] | 6 | 10 | 7 | 0.28 | – | – | – | – | – | –
18 | C[C@H](Oc1nc(-c2noc3c2CCC[C@@]32SCCc3sc(N)c(C#N)c32)nc2c1COC[C@]21CCOC1)[C@@H]1CCCN1C [II-16] | 1 | 4 | 1 | – | – | – | – | – | – | –
19 | C[C@H](Oc1nc(-c2noc3c2CCC[C@@]32CCCc3sc(N)c(C#N)c32)nc2c1CCC21CCOC1)[C@@H]1CCCN1C (some centres unmarked) [II-18] | 13 | – | – | 0.01 | 89 (≈ 152 µM) | 37 (≈ 63.1 µM) | – | – | – | –
20 | C[C@H](Oc1nc(-c2noc3c2CCC[C@@]32CCCc3sc(N)c(C#N)c32)nc2c1CC[C@]21CNCCO1)[C@@H]1C[C@@H](F)CN1C [II-20] | – | – | – | – | – | – | 96 | 10 | >156 | >156
